Measured values taken from ChEMBL document CHEMBL3044609, “Synthesis and Acaricidal Activities of New 2-Polyfluorophenylbenzazole Derivatives” (2002).
Converted amounts (≈) assume the structure as drawn. The source made the active and inactive calls. The calls are words filed in the database; no cut-off is given here.

Tests used:
[1] = system: Tetranychus urticae; assay: Acaricidal activity against Tetranychus urticae (two-spotted spider mite) in compound treated snap bean leaves assessed as adult mortality measured after 2 days by leaf disk method; assay type: functional; conditions: foliar, 48 h
[2] = system: Tetranychus urticae; assay: Acaricidal activity against Tetranychus urticae (two-spotted spider mite) in compound treated snap bean leaves assessed as egg mortality measured after 2 days by leaf disk method; assay type: functional; conditions: foliar, 48 h
[3] = system: Tetranychus urticae; assay: Acaricidal activity against kelthane-sensitive strain Tetranychus urticae (two-spotted spider mite) in compound treated snap bean leaves assessed as adult mortality measured after 2 days by leaf disk method; assay type: functional; conditions: foliar, 48 h
[4] = system: Tetranychus urticae; assay: Acaricidal activity against kelthane-sensitive strain Tetranychus urticae (two-spotted spider mite) in compound treated snap bean leaves assessed as egg mortality measured after 2 days by leaf disk method; assay type: functional; conditions: foliar, 48 h
[5] = system: Tetranychus urticae; assay: Ratio of LC50 for kelthane-resitant strain Tetranychus urticae (two-spotted spider mite) to LC50 for kelthane-sensitive strain Tetranychus urticae assessed as adult mortality measured after 2 days by leaf disk method; assay type: functional
[6] = system: Tetranychus urticae; assay: Acaricidal activity against kelthane-resitant strain Tetranychus urticae (two-spotted spider mite) in compound treated snap bean leaves assessed as egg mortality measured after 2 days by leaf disk method; assay type: functional; conditions: foliar, 48 h
[7] = system: Tetranychus urticae; assay: Acaricidal activity against kelthane-resitant strain Tetranychus urticae (two-spotted spider mite) in compound treated snap bean leaves assessed as adult mortality measured after 2 days by leaf disk method; assay type: functional; conditions: foliar, 48 h
[8] = system: Tetranychus urticae; assay: Ratio of LC50 for kelthane-resitant strain Tetranychus urticae (two-spotted spider mite) to LC50 for kelthane-sensitive strain Tetranychus urticae (two-spotted spider mite) assessed as egg mortality measured after 2 days by leaf disk method; assay type: functional
[9] = system: Tetranychus urticae; assay: Acaricidal activity against Tetranychus urticae (two-spotted spider mite) on strawberry plant assessed as average number of adult females mites at 1000 fold dilutions measured after 3 days (reference value: 100%); assay type: functional
[10] = system: Tetranychus urticae; assay: Acaricidal activity against Tetranychus urticae (two-spotted spider mite) on strawberry plant assessed as average number of adult females mites at 1000 fold dilutions measured after 23 days (reference value: 100%); assay type: functional
[11] = system: Tetranychus urticae; assay: Acaricidal activity against Tetranychus urticae (two-spotted spider mite) on strawberry plant assessed as average number of adult females mites at 1000 fold dilutions measured after 16 days (reference value: 100%); assay type: functional
[12] = system: Tetranychus urticae; assay: Acaricidal activity against Tetranychus urticae (two-spotted spider mite) on strawberry plant assessed as average number of adult females mites at 1000 fold dilutions measured after 30 days (reference value: 100%); assay type: functional
[13] = system: Tetranychus urticae; assay: Acaricidal activity against Tetranychus urticae (two-spotted spider mite) on strawberry plant assessed as average number of adult females mites at 1000 fold dilutions measured after 8 days (reference value: 100%); assay type: functional
[14] = system: Tetranychus urticae; assay: Acaricidal activity against Tetranychus urticae (two-spotted spider mite) on strawberry plant assessed as average number of adult females mites at 400 fold dilutions measured after 3 days (reference value: 100%); assay type: functional
[15] = system: Tetranychus urticae; assay: Acaricidal activity against Tetranychus urticae (two-spotted spider mite) on strawberry plant assessed as average number of adult females mites at 400 fold dilutions measured after 8 days (reference value: 100%); assay type: functional
[16] = system: Tetranychus urticae; assay: Acaricidal activity against Tetranychus urticae (two-spotted spider mite) on strawberry plant assessed as average number of adult females mites at 800 fold dilutions measured after 23 days (reference value: 100%); assay type: functional
[17] = system: Tetranychus urticae; assay: Acaricidal activity against Tetranychus urticae (two-spotted spider mite) on strawberry plant assessed as average number of adult females mites at 800 fold dilutions measured after 3 days (reference value: 100%); assay type: functional
[18] = system: Tetranychus urticae; assay: Acaricidal activity against Tetranychus urticae (two-spotted spider mite) on strawberry plant assessed as average number of adult females mites at 800 fold dilutions measured after 30 days (reference value: 100%); assay type: functional
[19] = system: Panonychus citri; assay: Acaricidal activity against Panonychus citri in compound treated lemon leaf assessed as adult mortality; assay type: functional, organism-based
[20] = system: Tetranychus urticae; assay: Acaricidal activity against Tetranychus urticae (two-spotted spider mite) on strawberry plant assessed as average number of adult females mites at 400 fold dilutions measured after 16 days (reference value: 100%); assay type: functional
[21] = system: Tetranychus urticae; assay: Acaricidal activity against Tetranychus urticae (two-spotted spider mite) on strawberry plant assessed as average number of adult females mites at 800 fold dilutions measured after 16 days (reference value: 100%); assay type: functional
[22] = system: Tetranychus urticae; assay: Acaricidal activity against Tetranychus urticae (two-spotted spider mite) on strawberry plant assessed as average number of adult females mites at 800 fold dilutions measured after 8 days (reference value: 100%); assay type: functional
[23] = system: Tetranychus urticae; assay: Acaricidal activity against Tetranychus urticae (two-spotted spider mite) on strawberry plant assessed as average number of adult females mites at 400 fold dilutions measured after 23 days (reference value: 100%); assay type: functional
[24] = system: Tetranychus urticae; assay: Acaricidal activity against Tetranychus urticae (two-spotted spider mite) on strawberry plant assessed as average number of adult females mites at 400 fold dilutions measured after 30 days (reference value: 100%); assay type: functional

SMILES	LC50 [1] [µg/mL]	LC50 [2] [µg/mL]	also measured
Cc1ccc2oc(-c3cc(F)c(F)c(F)c3F)nc2c1	19 (≈ 67.6 µM)	> 500	–
OC(c1ccc(Cl)cc1)(c1ccc(Cl)cc1)C(Cl)(Cl)Cl [DICOFOL]	–	–	LC50 [3]: 15.9 µg/mL (≈ 42.9 µM); LC50 [4]: 80.7 µg/mL (≈ 218 µM); RatioLC50 [5]: 18.65; LC50 [6]: 90.9 µg/mL (≈ 245 µM); LC50 [7]: 296 µg/mL (≈ 800 µM); RatioLC50 [8]: 1.13
Fc1cc(-c2nc3ccc(Br)cc3s2)c(F)c(F)c1F	93 (≈ 257 µM)	555 (≈ 1530 µM)	–
Fc1cc(-c2nc3ccccc3s2)c(F)c(Cl)c1F	35 (≈ 117 µM)	225 (≈ 751 µM)	–
Fc1cc(-c2nc3ccccc3o2)c(F)c(F)c1F	151 (≈ 565 µM)	351 (≈ 1310 µM)	–
CCc1nn(C)c(C(=O)NCc2ccc(C(C)(C)C)cc2)c1Cl [TEBUFENPYRAD]	–	–	Activity [9]: 4.3%; Activity [10]: 13.5%; Activity [11]: 5.6%; Activity [12]: 4.5%; Activity [13]: 7.8%
Cc1ccc2nc(-c3cc(F)c(F)c(Cl)c3F)sc2c1	155 (≈ 494 µM)	287 (≈ 915 µM)	–
Fc1cc(-c2nc3cc(Cl)ccc3o2)c(F)c(Cl)c1F	37 (≈ 116 µM)	173 (≈ 544 µM)	–
Fc1c(F)c(F)c(-c2nc3ccccc3s2)c(F)c1F [2-(PERFLUOROPHENYL)BENZO[D]THIAZOLE]	26 (≈ 86.3 µM)	124 (≈ 412 µM)	–
Cc1ccc2oc(-c3cc(F)c(F)cc3F)nc2c1	174 (≈ 661 µM)	173 (≈ 657 µM)	–
Cc1ccc2oc(-c3cccc(F)c3)nc2c1	383 (≈ 1690 µM)	> 500	–
c1ccc(-c2nc3ccccc3o2)cc1 [2-PHENYLBENZO[D]OXAZOLE]	> 500	> 500	–
Fc1cc(-c2nc3ccccc3s2)c(F)c(F)c1F	102 (≈ 360 µM)	205 (≈ 724 µM)	–
Fc1cc(-c2nc3cc(Cl)ccc3o2)c(F)c(F)c1F	100 (≈ 332 µM)	202 (≈ 670 µM)	–
Cc1ccc2oc(-c3cc(F)c(F)c(Cl)c3F)nc2c1	35 (≈ 118 µM)	154 (≈ 517 µM)	Activity [14]: 93.3%; Activity [15]: 108.8%; Activity [16]: 51.4%; Activity [17]: 93.7%; LC50 [3]: 71.6 µg/mL (≈ 241 µM); Activity [18]: 65%; Activity [19]: Active; LC50 [4]: 20.4 µg/mL (≈ 68.5 µM); Activity [20]: 71.1%; Activity [21]: 75.3%; RatioLC50 [5]: 1.69; Activity [22]: 86.5%; Activity [23]: 38.9%; LC50 [6]: 17.1 µg/mL (≈ 57.4 µM); LC50 [7]: 121 µg/mL (≈ 406 µM); Activity [24]: 43.9%; RatioLC50 [8]: 0.84
Cc1ccc2oc(-c3ccc(F)cc3)nc2c1	> 500	> 500	–
Fc1cc(-c2nc3ccccc3o2)c(F)c(Cl)c1F	66 (≈ 233 µM)	257 (≈ 906 µM)	–
c1ccc(-c2nc3ccccc3s2)cc1 [2-PHENYLBENZO[D]THIAZOLE]	211 (≈ 999 µM)	> 500	–
Cc1ccc2nc(-c3cc(F)c(F)c(F)c3F)sc2c1	75 (≈ 252 µM)	205 (≈ 690 µM)	–
Cc1cc(C)c2oc(-c3cc(F)c(F)c(Cl)c3F)nc2c1	< 31	> 500	–
Cc1ccc2oc(-c3ccccc3F)nc2c1	88 (≈ 387 µM)	> 500	–
Fc1ccc(-c2nc3ccccc3s2)cc1F	< 125	> 500	–
Cc1ccc2nc(-c3cc(F)c(F)c(Cl)c3F)oc2c1	48 (≈ 161 µM)	> 500	–
Cc1ccc2oc(-c3ccccc3)nc2c1	> 500	> 500	–
